Tests used:
Type in all cases: in vivo
Quamoclit pennata [1] = assay: Herbicidal activity test, post-weeds emergence treatment; settings: assessed after 2 to 3 weeks, 0: no effect, 10: complete death
Protocol: (§1) A rectangular plastic pot with a surface area of 300 cm^2 was filled with sandy loam soil and mixed soil at a ratio of 1:1, and four kinds of weeds including Quamoclit pennata, Abutilon theophrasti Medicus, and Aeschynomene indica, Xanthium strumarium were sown therein. In another pot made in the same way, three kinds of crop seeds including maize, wheat, and rice were sown. The pots were watered and one day later, a medicament was sprayed thereon. The spraying was performed by using a track sprayer (R&D Sprayer, USA) equipped with Teejet 8002EVS (Spraying Systems Co., USA) nozzle, and the spray amount was controlled to be 1000 L/ha. A spray solution was prepared by dissolving the compound of each example or a control material in acetone, and then, adding the same amount of 0.1% (v/v) tween 20 aqueous solution thereto. The spray amount was 200 g/ha. The pots were placed in a greenhouse in which the temperature was maintained at 25° C. to 30° C. during the day and 15° C. to 25° C. during the night, and was regularly watered. After 2 to 3 weeks from the spraying of the compounds or the control material, the efficacy and the damages on each weed and each crop were assessed according to the scale of 0-10 (0: no effect, 10: complete death) scale and the results are shown in Table 3 below.
(§2) Pots for crops and weeds were prepared in the same manner as in Experimental Example 1, and then, when the crops and the weeds were raised up to 2 weeks roughly on a third-leaf stage, the compounds and the control material were sprayed thereon in the same manner as described above. The spray amount was 200 g/ha. After 2 to 3 weeks from the spraying of the test substance or the control substance, the efficacy and the damages on each weed and each crop were assessed according to the scale of 0-10 (0: no effect, 10: complete death) scale.
(§3) Pots for crops and weeds were prepared in the same manner as the test method illustrated in Table 5, and four kinds of weeds selected from Quamoclit pennata, Abutilon theophrasti Medicus, and Aeschynomene indica, Xanthium strumarium were used. The spray amount was 200 g/ha for crops and 50 g/ha for weeds.

[2] = system: Abutilon theophrasti Medicus; assay: as above; settings: assessed after 2 to 3 weeks, 0: no effect, 10: complete death
Protocol: as §1, §2, §3

Aeschynomene indica [3] = assay: as above; settings: assessed after 2 to 3 weeks, 0: no effect, 10: complete death
Protocol: as §1, §2, §3

Xanthium strumarium [4] = assay: as above; settings: assessed after 2 to 3 weeks, 0: no effect, 10: complete death
Protocol: as §1, §2, §3

wheat [5] = assay: Herbicidal activity test, pre-weeds emergence treatment (crop damage); settings: assessed 2 to 3 weeks after spraying, scale 0-10 (0: no effect, 10: complete death)
Protocol: as §1
(§4) Pots for crops and weeds were prepared in the same manner as the test method illustrated in Table 3, and three kinds of weeds selected from Quamoclit pennata, Abutilon theophrasti Medicus, and Aeschynomene indica, Xanthium strumarium were used.

maize [6] = assay: as above; settings: assessed 2 to 3 weeks after spraying, scale 0-10 (0: no effect, 10: complete death)
Protocol: as §1, §4

rice [7] = assay: as above; settings: assessed 2 to 3 weeks after spraying, scale 0-10 (0: no effect, 10: complete death)
Protocol: as §1, §4

Quamoclit pennata [8] = assay: Herbicidal activity test, pre-weeds emergence treatment; settings: assessed 2 to 3 weeks after spraying, scale 0-10 (0: no effect, 10: complete death)
Protocol: as §1, §4

[9] = system: Abutilon theophrasti Medicus; assay: as above; settings: assessed 2 to 3 weeks after spraying, scale 0-10 (0: no effect, 10: complete death)
Protocol: as §1, §4

Aeschynomene indica [10] = assay: as above; settings: assessed 2 to 3 weeks after spraying, scale 0-10 (0: no effect, 10: complete death)
Protocol: as §1, §4

Xanthium strumarium [11] = assay: as above; settings: assessed 2 to 3 weeks after spraying, scale 0-10 (0: no effect, 10: complete death)
Protocol: as §1, §4

wheat [12] = assay: Herbicidal activity test, post-weeds emergence treatment (crop damage); settings: assessed after 2 to 3 weeks, 0: no effect, 10: complete death
Protocol: as §1, §2, §3

maize [13] = assay: as above; settings: assessed after 2 to 3 weeks, 0: no effect, 10: complete death
Protocol: as §1, §2, §3

rice [14] = assay: as above; settings: assessed after 2 to 3 weeks, 0: no effect, 10: complete death
Protocol: as §1, §2, §3

[15] = spray amount 50 g/ha for weeds, Table 6
[16] = spray amount 200 g/ha for crops, Table 6

Row | SMILES | IPOAN (Quamoclit pennata) herbicidal efficacy, scale of 0-10 (Quamoclit pennata [1]; [15]) | IPOAN (Quamoclit pennata) herbicidal efficacy, scale of 0-10 (Quamoclit pennata [1]; spray amount 200 g/ha, Table 5) | ABUTH (Abutilon theophrasti Medicus) herbicidal efficacy, scale of 0-10 [2, 15] | ABUTH (Abutilon theophrasti Medicus) herbicidal efficacy, scale of 0-10 ([2]; spray amount 200 g/ha, Table 5) | AESIN (Aeschynomene indica) herbicidal efficacy, scale of 0-10 (Aeschynomene indica [3]; [15]) | AESIN (Aeschynomene indica) herbicidal efficacy, scale of 0-10 (Aeschynomene indica [3]; spray amount 200 g/ha, Table 5) | XANST (Xanthium strumarium) herbicidal efficacy, scale of 0-10 (Xanthium strumarium [4]; [15]) | XANST (Xanthium strumarium) herbicidal efficacy, scale of 0-10 (Xanthium strumarium [4]; spray amount 200 g/ha, Table 5) | PRE TRZAW (wheat), damage score (wheat [5]; Table 3, 200 g/ha) | PRE TRZAW (wheat), damage score (wheat [5]; Table 4, 200 g/ha) | PRE ZEAMX (maize), damage score (maize [6]; Table 3, 200 g/ha) | PRE ZEAMX (maize), damage score (maize [6]; Table 4, 200 g/ha) | PRE ORYSA (rice), damage score (rice [7]; Table 4, 200 g/ha) | PRE IPOAN (Quamoclit pennata), efficacy score (Quamoclit pennata [8]; Table 4, 200 g/ha) | PRE ABUTH (Abutilon theophrasti Medicus), efficacy score ([9]; Table 4, 200 g/ha) | PRE AESIN (Aeschynomene indica), efficacy score (Aeschynomene indica [10]; Table 4, 200 g/ha) | PRE XANST (Xanthium strumarium), efficacy score (Xanthium strumarium [11]; Table 4, 200 g/ha) | TRZAW (wheat) damage, scale of 0-10 (wheat [12]; [16]) | ZEAMX (maize) damage, scale of 0-10 (maize [13]; [16]) | ORYSA (rice) damage, scale of 0-10 (rice [14]; [16]) | other results
1 | Nc1c(Cl)c(F)nc(OCC(=O)O)c1Cl [fluroxypyr, reference compound] | 6 | 8 | 7 | 10 | 3 | 10 | 10 | 10 | 3 | 3 | 3 | 4 | 8 | 9 | 7 | 10 | 9 | 0 | 3 | 3 | PRE ORYSA (rice), damage score (rice [7]; Table 3, 200 g/ha): 8; PRE IPOAN (Quamoclit pennata), efficacy score (Quamoclit pennata [8]; Table 3, 200 g/ha): 9; PRE ABUTH (Abutilon theophrasti Medicus), efficacy score ([9]; Table 3, 200 g/ha): 7; PRE AESIN (Aeschynomene indica), efficacy score (Aeschynomene indica [10]; Table 3, 200 g/ha): 9; PRE XANST (Xanthium strumarium), efficacy score (Xanthium strumarium [11]; Table 3, 200 g/ha): 9; TRZAW (wheat) damage, scale of 0-10 (wheat [12]; spray amount 200 g/ha, Table 5): 3; ZEAMX (maize) damage, scale of 0-10 (maize [13]; spray amount 200 g/ha, Table 5): 0; ORYSA (rice) damage, scale of 0-10 (rice [14]; spray amount 200 g/ha, Table 5): 4
2 | Nc1cc(C2CC(Br)=NO2)nc(C(=O)OCc2ccc(F)cc2)c1Cl (centres unmarked) [Compound 90, 4-fluorobenzyl 4-amino-6-(3-bromo-4,5-dihydroisoxazol-5-yl)-3-chloropicolinate] | 4 |  | 5 |  | 7 |  | 10 |  |  | 0 |  | 0 | 0 | 3 | 3 | 10 | 7 | 0 | 0 | 0 | 
3 | Nc1cc(C2CC(Br)=NO2)nc(C(=O)OCc2ccc(Br)cc2)c1Cl (centres unmarked) [Compound 91, 4-bromobenzyl 4-amino-6-(3-bromo-4,5-dihydroisoxazol-5-yl)-3-chloropicolinate] | 5 |  | 5 |  | 6 |  | 10 |  |  | 0 |  | 0 | 0 | 2 | 10 | 6 | 6 | 0 | 0 | 0 | 
4 | COc1ccc(COC(=O)c2nc(C3CC(Br)=NO3)cc(N)c2Cl)cc1 (centres unmarked) [Compound 89, 4-methoxybenzyl 4-amino-6-(3-bromo-4,5-dihydroisoxazol-5-yl)-3-chloropicolinate] | 5 |  | 6 |  | 8 |  | 9 |  |  | 0 |  | 0 | 0 | 8 | 8 | 10 | 10 | 0 | 0 | 0 | 
5 | COC(=O)c1nc(C2CC(Cl)=NO2)cc(NC(C)=O)c1Cl (centres unmarked) [Compound 1, methyl 4-acetamido-3-chloro-6-(3-chloro-4,5-dihydroisoxazol-5-yl)picolinate] |  | 8 |  | 8 |  | 10 |  | 10 | 1 |  | 0 |  |  |  |  |  |  |  |  |  | PRE ORYSA (rice), damage score (rice [7]; Table 3, 200 g/ha): 0; PRE IPOAN (Quamoclit pennata), efficacy score (Quamoclit pennata [8]; Table 3, 200 g/ha): 9; PRE ABUTH (Abutilon theophrasti Medicus), efficacy score ([9]; Table 3, 200 g/ha): 8; PRE AESIN (Aeschynomene indica), efficacy score (Aeschynomene indica [10]; Table 3, 200 g/ha): 10; PRE XANST (Xanthium strumarium), efficacy score (Xanthium strumarium [11]; Table 3, 200 g/ha): 9; TRZAW (wheat) damage, scale of 0-10 (wheat [12]; spray amount 200 g/ha, Table 5): 1; ZEAMX (maize) damage, scale of 0-10 (maize [13]; spray amount 200 g/ha, Table 5): 0; ORYSA (rice) damage, scale of 0-10 (rice [14]; spray amount 200 g/ha, Table 5): 1
6 | Nc1cc(C2CC(Cl)=NO2)nc(C(=O)O)c1Cl (centres unmarked) [Compound 38, 4-amino-3-chloro-6-(3-chloro-4,5-dihydroisoxazol-5-yl)picolinic acid] |  | 9 |  | 10 |  | 10 |  | 10 | 2 |  | 0 |  |  |  |  |  |  |  |  |  | PRE ORYSA (rice), damage score (rice [7]; Table 3, 200 g/ha): 7; PRE IPOAN (Quamoclit pennata), efficacy score (Quamoclit pennata [8]; Table 3, 200 g/ha): 10; PRE ABUTH (Abutilon theophrasti Medicus), efficacy score ([9]; Table 3, 200 g/ha): 10; PRE AESIN (Aeschynomene indica), efficacy score (Aeschynomene indica [10]; Table 3, 200 g/ha): 10; PRE XANST (Xanthium strumarium), efficacy score (Xanthium strumarium [11]; Table 3, 200 g/ha): 10; TRZAW (wheat) damage, scale of 0-10 (wheat [12]; spray amount 200 g/ha, Table 5): 0; ZEAMX (maize) damage, scale of 0-10 (maize [13]; spray amount 200 g/ha, Table 5): 1; ORYSA (rice) damage, scale of 0-10 (rice [14]; spray amount 200 g/ha, Table 5): 3

Source: US20190159450A1, “PYRIDINE-BASED COMPOUND INCLUDING ISOXAZOLINE RING AND USE THEREOF AS HERBICIDE” (MOGHU RESEARCH CENTER LTD., priority 2016, published 2019)
